Results from US20150065442A1, “REDUCIBLE SELF-ASSEMBLED MICELLE DRUG DELIVERY SYSTEMS” (University of Manitoba, priority 2012, published 2015).

Legend:
[1] = test system: MCF-7 human breast cancer cells; assay: Cellular uptake of DOX by confocal laser scanning microscopy; format: cell-based
Procedure: Confocal laser scanning microscopy (CLSM) was employed to examine the cellular uptake of DOX by incubating MCF-7 human breast cancer cells with free DOX or DOX-loaded reducible self-assembled rPAE micelles or DOX-loaded non-reducible self-assembled nPAE micelles for 15 min and 2 h. First, the MCF-7 cells were seeded in 10-cm culture dishes at a density of 2×10^5 cells/dish, overlaid with cover slips, and cultured for 24 h. Then, the cells were exposed to DOX-loaded micelles. After the predetermined incubation times, the cover slips were removed and washed with cold PBS three times after which, the cells were fixed by 4% paraformaldehyde in PBS at room temperature for 15 min. After fixation, the cells were permeabilized by 0.1% Triton X-100 in PBS for 10 min and then rinsed with PBS three times. The cells were incubated in 10 uM BODIPY® FL phallacidin/1% (w/v) BSA solution for 20 min and then rinsed with PBS three times. The cells were then incubated in 10 μM Topro-3 for 20 min and then rinsed with PBS three times. The cover slips were set onto microscope slides and examined by CLSM.

HepG2 cells = assay: MTT cytotoxicity (cell inhibition) assay; format: cell-based, human
Procedure: Hepatoma cells (HepG2) were used to investigate cell inhibition of DOX-loaded nanoparticles. HepG2 cells were obtained from the American Type Culture Collection and cultured with Dulbecco's Modified Eagle's Medium (DMEM, GIBCO) supplemented with 10% fetal bovine serum (FBS, GIBCO), 1.0×10^5 U/l penicillin (Sigma) and 100 mg/l streptomycin (Sigma) at 37° C. in 5% CO2.
The cytotoxicity of the copolymeric micelles loaded with DOX was determined using the MTT Cell Proliferation Kit (Biotium Inc., Hayward, Calif., USA). HepG2 cells were seeded into a 96-well tissue culture plate at a density of 8,000 cells per well and were incubated at 37° C. in 5% CO2. The growth medium was replaced with fresh DMEM after 24 h. Then the DOX-loaded PAE polymeric micelle solution and controls (free DOX and blank micelle solutions) were added into wells (six wells per sample). After 48 h of incubation, 10 μL MTT solution was added to each well and incubation continued for another 4 h. […] The absorbance of each well was measured using an ELISA plate reader at a test wavelength of 570 nm and a reference wavelength of 630 nm. The cell inhibition of samples was calculated as: […]
where Isample and Icontrol represent the intensity determined for cells treated with different samples and for control cells (untreated), respectively.

[2] = test system: hepatocellular carcinomatous HepG2 cells; assay: Cellular uptake of DOX by confocal laser scanning microscopy; format: cell-based, human
Procedure: Confocal laser scanning microscopy (CLSM) was employed to examine the cellular uptake of DOX by incubating hepatocellular carcinomatous HepG2 cells with free DOX or the DOX-loaded micelles for 15 min, 2 h or 24 h. First, the HepG2 cells were seeded in culture dishes at a density of 2×10^5 cells/dish, overlaid with cover slips, and cultured for 24 h. Then, the cells were exposed to DOX-loaded micelles. After predetermined incubation times, the cover slips were removed and was washed with cold PBS three times after which, the cells were fixed by 4% paraformaldehyde in PBS at room temperature for 15 min. After fixation, the cells were permeabilized by 0.1% Triton X-100 in PBS for 10 min and then rinsed with PBS three times. The cells were incubated in 10 uM BODIPY® FL phallacidin/1% (w/v) BSA solution for 20 min and then rinsed with PBS three times (BODIPY is a registered trademark of Molecular Probes Inc., Eugene, Oreg., USA). The cells were then incubated in 10 μM Topro-3 for 20 min and then rinsed with PBS three times. The cover slips were set onto microscope slides and examined by CLSM.

With `COc1cccc2c1C(=O)c1c(O)c3c(c(O)c1C2=O)C[C@@](O)(C(=O)CO)C[C@@H]3O[C@H]1C[C@H](N)[C@H](O)[C@H](C)O1` [free DOX, doxorubicin] the “Intracellular DOX fluorescence” value ([1]; MCF-7, 15 min of incubation) was “fluorescing DOX molecules were observed intracellularly”, the “Intracellular DOX fluorescence” value ([1]; MCF-7, 2 hr of incubation) was “accumulations of DOX molecules around the nuclei” and the “Cytotoxicity, dose dependence” value (HepG2 cells) was “increases with increasing dose”. For the same compound, the “Intracellular distribution of DOX fluorescence” value (“Intracellular distribution” below) ([2]; HepG2, 15-min incubation) was “evenly distributed in cell cytoplasm and the nuclei”, the “Intracellular distribution” value ([2]; HepG2, 2 h exposure) was “DOX fluorescence accumulation was detected in and around the nuclei” and the “Cell morphology after exposure” value ([2]; HepG2, 24 h exposure) was “nucleus became distinctively swollen and the cytoplasm shrank”. For the same compound, the “Intracellular distribution” value ([2]; HepG2, 24 h exposure) was “most of DOX fluorescence was distributed into the nucleus”.
